The text below walks through data of patent publication US20210395239A1 (Hoffmann-La Roche Inc., priority 2018, published 2021).

The inhibition is the drop in the measured response relative to a control, in per cent. As usually defined, the IC20 is the point of the concentration-response curve where the effect stands at 20%. As usually defined, the IC50 is the midpoint of a concentration-inhibition curve. Low readings indicate inhibition by little substance, high ones a need for much substance.

The target of one data set is T1, CYP3A4 (Homo sapiens, UniProt P08684).
T1 construct: tissue BD-Gentest 452117; host or cells: human liver microsomes
T1 sequence (P08684 whole entry): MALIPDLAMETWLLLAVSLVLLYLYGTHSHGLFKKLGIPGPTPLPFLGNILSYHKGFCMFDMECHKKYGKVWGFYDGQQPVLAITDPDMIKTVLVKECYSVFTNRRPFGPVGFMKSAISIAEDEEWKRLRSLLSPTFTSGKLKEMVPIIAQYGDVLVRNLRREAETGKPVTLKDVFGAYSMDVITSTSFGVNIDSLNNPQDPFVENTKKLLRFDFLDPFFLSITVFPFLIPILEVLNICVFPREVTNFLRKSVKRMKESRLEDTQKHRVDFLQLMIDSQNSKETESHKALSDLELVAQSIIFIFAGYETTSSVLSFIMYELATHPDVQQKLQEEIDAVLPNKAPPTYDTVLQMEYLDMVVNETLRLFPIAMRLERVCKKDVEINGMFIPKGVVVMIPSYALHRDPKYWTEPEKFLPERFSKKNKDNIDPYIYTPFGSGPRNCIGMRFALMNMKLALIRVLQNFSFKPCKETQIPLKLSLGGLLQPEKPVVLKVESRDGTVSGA
The experiment in a line: CYP inhibition assay in human liver microsome, CYP3A4. It is filed as in vitro ADME. The conditions noted are these: human, human liver microsomes, probe midazolam 5 μM, substrate midazolam 5 μM, third value of 2C9/2D6/3A4. The procedure: This is a high throughput screening assay used for assessment of reversible inhibition of CYP2C9, CYP2D6, and CYP3A4 activity of test compounds in human liver microsome (HLM) in early discovery stage.
10 mM DMSO stock solutions of test compounds were diluted in DMSO to generate 2 mM intermediate stock solution. 250 nL, of intermediate stock solution were transferred in duplicate into 3 separate 384 well microtitre plates (assay-ready plates). A mixture of HLM and each substrate was made up. 45 μL of HLM substrate mix was then transferred to each well of an assay ready plate and mixed. The negative (solvent) and positive controls (standard inhibitor for each CYP) were included in each assay ready plate. The assay ready plate was warmed to 37° C. in an incubator over 10 minutes. 5 μL pre-warmed NADPH regenerating system was added to each incubation well to start the reaction. Final incubation volume was 50 μL. The assay plate then was placed back in the 37° C. incubator. After incubation (10 minutes for CYP2D6) for 5 minutes, incubates were quenched by addition of 50 μL 100% acetonitrile containing internal standards (400 ng/mL 13C6-4′-OH-Diclofenac, 20 ng/mL D3-Dextrorphan and 20 ng/mL D4-1′OH-Midazolam). The supernatants were collected for RapidFire/MS/MS analysis.
RapidFire online solid phase extraction/sample injection system (Agilent) coupled with API4000 triple quadrupole mass spectrometer (AB Sciex) were used for sample analysis. The mobile phase composed of acetonitrile and water supplemented with 0.1% formic acid. A C4 solid phase extraction cartridge is used for sample separation. MS detection is achieved in positive ion MRM mode.
Peak areas for substrate, metabolite and internal standard are determined using the RapidFire integrator software (version 3.6.12009.12296). Peak area ratios (PAR) of metabolite and internal standard (stable-labelled metabolite) are then calculated. The measurement window for each experiment is then defined:
PAR (0% activity)=average PAR for all incubations containing concentrated inhibitor; Par (100% activity)=average PAR for all incubations containing no inhibitor (DMSO controls); % Activity (test inhibitor)=[PAR (test inhibitor)−PAR (0% activity)]/[PAR (100% activity)−PAR (0% activity)]; % Inhibition (test inhibitor)=100-% Activity (test inhibitor).
Background: Liver microsomes are vesicles of endoplasmic reticulum, rich in cytochrome P450 enzymes.

In a further data set the target is T2, hERG channel (Homo sapiens, UniProt Q12809).
T2 construct: expressed in transfected cells; host or cells: CHO (Chinese hamster ovary)
T2 sequence (Q12809 whole entry): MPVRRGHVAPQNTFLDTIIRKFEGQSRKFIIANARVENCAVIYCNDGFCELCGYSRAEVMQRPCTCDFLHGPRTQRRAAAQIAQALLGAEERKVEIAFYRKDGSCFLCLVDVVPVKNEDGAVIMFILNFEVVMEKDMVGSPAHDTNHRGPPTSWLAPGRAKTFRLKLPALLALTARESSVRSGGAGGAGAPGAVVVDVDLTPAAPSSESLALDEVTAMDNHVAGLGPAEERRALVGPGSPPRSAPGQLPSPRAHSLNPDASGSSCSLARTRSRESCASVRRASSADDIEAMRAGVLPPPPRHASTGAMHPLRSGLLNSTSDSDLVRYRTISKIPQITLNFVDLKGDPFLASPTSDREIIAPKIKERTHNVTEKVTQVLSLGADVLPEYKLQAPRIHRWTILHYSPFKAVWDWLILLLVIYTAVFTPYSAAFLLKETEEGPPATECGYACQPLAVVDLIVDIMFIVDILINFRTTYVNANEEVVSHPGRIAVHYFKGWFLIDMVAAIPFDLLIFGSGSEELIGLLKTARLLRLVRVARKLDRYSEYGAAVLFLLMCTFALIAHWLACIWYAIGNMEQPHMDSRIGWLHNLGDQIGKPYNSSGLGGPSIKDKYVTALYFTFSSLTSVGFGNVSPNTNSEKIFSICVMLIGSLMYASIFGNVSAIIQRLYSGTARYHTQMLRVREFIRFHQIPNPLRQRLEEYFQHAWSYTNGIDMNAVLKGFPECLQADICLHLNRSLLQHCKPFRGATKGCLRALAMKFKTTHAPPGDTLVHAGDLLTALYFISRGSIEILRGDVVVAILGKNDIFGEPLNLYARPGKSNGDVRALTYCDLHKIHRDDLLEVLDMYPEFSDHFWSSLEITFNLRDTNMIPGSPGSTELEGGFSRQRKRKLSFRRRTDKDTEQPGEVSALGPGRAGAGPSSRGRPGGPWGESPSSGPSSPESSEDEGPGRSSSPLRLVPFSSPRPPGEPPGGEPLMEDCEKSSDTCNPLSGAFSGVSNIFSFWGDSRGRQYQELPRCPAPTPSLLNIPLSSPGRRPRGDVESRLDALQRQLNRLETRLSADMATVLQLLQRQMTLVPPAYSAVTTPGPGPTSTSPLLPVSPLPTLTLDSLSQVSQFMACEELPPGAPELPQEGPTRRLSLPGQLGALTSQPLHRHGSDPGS
Nature of the data set: hERG channel inhibition assay (patch-clamp, CHOhERG cells). As to conditions: for IC20: human, CHO cells stably expressing hERG (CHOhERG); for IC20 / IC50: patch-clamp, CHOhERG cells; for hERG IC20/TLR7 IC50 / hERG IC20/TLR8 IC50 / hERG IC20/TLR9 IC50: safety ratio. It is filed as cell-based. The method in brief: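 Whole-cell voltage-clamp recordings used CHO cells stably expressing human hERG, with IKhERG evoked by a voltage protocol at 0.1 Hz. Increasing compound concentrations were applied, each for 3–10 min to reach steady state, and current amplitude and kinetics were expressed relative to control (100%).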
A general note: The hERG channel carries a current that helps repolarise heart muscle cells.

For the compound `CO[C@@H]1CN(c2ccc(N3CCN(C[C@H]4CN(c5ccc(C#N)n6ncc(F)c56)C[C@@H](C)O4)CC3)cn2)C[C@H]1N` [Example 166, 4-[(2S,6R)-2-[[4-[6-[(3R,4R)-3-amino-4-methoxy-pyrrolidin-1-yl]-3-pyridyl]piperazin-1-yl]methyl]-6-methyl-morpholin-4-yl]-3-fluoro-pyrazolo[1,5-a]pyridine-7-carbonitrile], at CYP3A4, the inhibition at 5 min, 10 µM turned out to be 35.5%. For the same compound, at hERG channel, the IC20 was 8 µM, the IC50 was above 20 µM, the “hERG IC20/TLR7 IC50” value is 380 and the “hERG IC20/TLR8 IC50” value is 258. In addition, the “hERG IC20/TLR9 IC50” value at hERG channel came out at 173.
Turning to `C[C@@H]1CN(c2ccc(C#N)n3ncc(F)c23)C[C@H](CN2CCN(c3ccc(N4CC(C)(N)C4)nc3)CC2)O1` [Example 154, 4-[(2S,6R)-2-[[4-[6-(3-amino-3-methyl-azetidin-1-yl)-3-pyridyl]piperazin-1-yl]methyl]-6-methyl-morpholin-4-yl]-3-fluoro-pyrazolo[1,5-a]pyridine-7-carbonitrile], on CYP3A4, the inhibition at 5 min, 10 µM worked out at 10.5%. For the same compound, on hERG channel, the IC20 was above 10 µM, the IC50 was above 20 µM, the “hERG IC20/TLR7 IC50” value is above 312 and the “hERG IC20/TLR8 IC50” value is above 200. Moreover, the “hERG IC20/TLR9 IC50” value on hERG channel is on record as above 89.
As to `[2H]c1ccc2c(N3C[C@H](CN4CCN(c5ccc(N6C[C@@H](N)[C@H](OC)C6)nc5)CC4)O[C@H](C)C3)ccc(C#N)c2n1` [Example 143, 5-[(2S,6R)-2-[[4-[6-[(3R,4R)-3-amino-4-methoxy-pyrrolidin-1-yl]-3-pyridyl]piperazin-1-yl]methyl]-6-methyl-morpholin-4-yl]-2-deuterio-quinoline-8-carbonitrile], on CYP3A4, the inhibition at 5 min, 10 µM came to 18%. For the same compound, at hERG channel, the IC20 was above 10 µM, the IC50 was above 20 µM, the “hERG IC20/TLR7 IC50” value was above 476 and the “hERG IC20/TLR8 IC50” value is above 1250. Also, the “hERG IC20/TLR9 IC50” value at hERG channel was above 212.
Regarding `CO[C@H]1CN(c2cc(C)nc(N3CCN(C[C@H]4CN(c5ccc(C#N)c6nccnc56)C[C@@H](C)O4)CC3)n2)C[C@@H]1N` [Example 104, 8-[(2S,6R)-2-[[4-[4-[(3S,4S)-3-amino-4-methoxy-pyrrolidin-1-yl]-6-methyl-pyrimidin-2-yl]piperazin-1-yl]methyl]-6-methyl-morpholin-4-yl]quinoxaline-5-carbonitrile], the inhibition at 5 min, 10 µM against CYP3A4 was -12%. For the same compound, at hERG channel, the IC20 was above 10 µM, the IC50 is above 20 µM, the “hERG IC20/TLR7 IC50” value is above 454 and the “hERG IC20/TLR8 IC50” value is recorded as above 10000. In addition, the “hERG IC20/TLR9 IC50” value at hERG channel is reported as above 142.
For the compound `C[C@@H]1CN(c2ccc(C#N)c3ncccc23)C[C@H](CN2CCN(c3ccnc(N4C[C@H](N)[C@@H](F)C4)n3)CC2)O1` [Example 110, 5-[(2S,6R)-2-[[4-[2-[(3S,4S)-3-amino-4-fluoro-pyrrolidin-1-yl]pyrimidin-4-yl]piperazin-1-yl]methyl]-6-methyl-morpholin-4-yl]quinoline-8-carbonitrile], the inhibition at 5 min, 10 µM on CYP3A4 worked out at 44%.
`CO[C@H]1CN(c2nc(C)cc(N3CCN(C[C@H]4CN(c5ccc(C#N)c6nccnc56)C[C@@H](C)O4)CC3)n2)C[C@@H]1N` [Example 106, 8-[(2S,6R)-2-[[4-[2-[(3S,4S)-3-amino-4-methoxy-pyrrolidin-1-yl]-6-methyl-pyrimidin-4-yl]piperazin-1-yl]methyl]-6-methyl-morpholin-4-yl]quinoxaline-5-carbonitrile]: the inhibition at 5 min, 10 µM against CYP3A4 came out at 20.5%.
Turning to `[2H]c1nc2c(C#N)ccc(N3C[C@H](CN4CCN(c5nc(C)cc(N6CC(N)C6)n5)CC4)O[C@H](C)C3)c2nc1[2H]` [Example 124, 8-[(2S,6R)-2-[[4-[4-(3-aminoazetidin-1-yl)-6-methyl-pyrimidin-2-yl]piperazin-1-yl]methyl]-6-methyl-morpholin-4-yl]-2,3-dideuterio-quinoxaline-5-carbonitrile], the inhibition at 5 min, 10 µM against CYP3A4 was 16%. At hERG channel, the 20% effect concentration (IC20) is above 10 µM, the IC50 is above 20 µM, the “hERG IC20/TLR7 IC50” value is listed as above 2000 and the “hERG IC20/TLR8 IC50” value is on record as above 10000. Further, the “hERG IC20/TLR9 IC50” value on hERG channel is recorded as above 322.
On to `C[C@@H]1CN(c2ccc(C#N)c3ncccc23)C[C@H](CN2CCC(c3cccc(N4CCNCC4)c3)C2)O1` (stereo partly drawn) [Example 1, 5-[(2R,6S)-2-methyl-6-[[3-(3-piperazin-1-ylphenyl)pyrrolidin-1-yl]methyl]morpholin-4-yl]quinoline-8-carbonitrile], for which the inhibition at 5 min, 10 µM at CYP3A4 stood at 14%.
On the same count and under the same terms, next, `C[C@@H]1CN(c2ccc(C#N)n3ncc(F)c23)C[C@H](CN2CC(c3ccc(N4C[C@@H]5C[C@H]4CN5)nc3)C2)O1` [Example 165, 4-[(2S,6R)-2-[[3-[6-[(1S,4S)-2,5-diazabicyclo[2.2.1]heptan-2-yl]-3-pyridyl]azetidin-1-yl]methyl]-6-methyl-morpholin-4-yl]-3-fluoro-pyrazolo[1,5-a]pyridine-7-carbonitrile]: 9%.
Take `[2H]c1ccc2c(N3C[C@H](CN4CCN(c5ccc(N6CC(C)(N)C6)nc5)CC4)O[C@H](C)C3)ccc(C#N)c2n1` [Example 132, 5-[(2S,6R)-2-[[4-[6-(3-amino-3-methyl-azetidin-1-yl)-3-pyridyl]piperazin-1-yl]methyl]-6-methyl-morpholin-4-yl]-2-deuterio-quinoline-8-carbonitrile]: the inhibition at 5 min, 10 µM on CYP3A4 worked out at 7.5%. On hERG channel, the IC20 was above 10 µM, the half-maximal inhibitory concentration (IC50) was above 20 µM, the “hERG IC20/TLR7 IC50” value is above 434 and the “hERG IC20/TLR8 IC50” value is reported as above 625. Besides, at hERG channel, the “hERG IC20/TLR9 IC50” value is reported as above 71.
In the case of `Cc1cc(N2CCNCC2)nc(N2CCN(C[C@H]3CN(c4ccc(C#N)c5nccnc45)C[C@@H](C)O3)CC2)n1` [Example 114, 8-[(2R,6S)-2-methyl-6-[[4-(4-methyl-6-piperazin-1-yl-pyrimidin-2-yl)piperazin-1-yl]methyl]morpholin-4-yl]quinoxaline-5-carbonitrile], the inhibition at 5 min, 10 µM against CYP3A4 was 16%. At hERG channel, the IC20 is above 10 µM, the IC50 is above 20 µM, the “hERG IC20/TLR7 IC50” value is above 3333 and the “hERG IC20/TLR8 IC50” value is on record as above 10000. Besides, on hERG channel, the “hERG IC20/TLR9 IC50” value was above 161.
In the case of `C[C@@H]1CN(c2ccc(C#N)c3ncccc23)C[C@H](CN2CCC(c3cccc(C4CCNCC4)c3)CC2)O1` [Example 2, 5-[(2R,6S)-2-methyl-6-[[4-[3-(4-piperidyl)phenyl]-1-piperidyl]methyl]morpholin-4-yl]quinoline-8-carbonitrile], the inhibition at 5 min, 10 µM on CYP3A4 came out at 18%.
Still for that read-out and setting: next, `C[C@@H]1CN(c2ccc(C#N)c3nccnc23)C[C@H](CN2CCN(c3nccc(N4C[C@@H](N)[C@H](F)C4)n3)CC2)O1` [Example 119, 8-[(2S,6R)-2-[[4-[4-[(3R,4R)-3-amino-4-fluoro-pyrrolidin-1-yl]pyrimidin-2-yl]piperazin-1-yl]methyl]-6-methyl-morpholin-4-yl]quinoxaline-5-carbonitrile]: 23.5%; `C[C@@H]1CN(c2ccc(C#N)n3ncc(F)c23)C[C@H](CN2CC(c3ccc(N4CC(C)(N)C4)nc3)C2)O1` [Example 158, 4-[(2S,6R)-2-[[3-[6-(3-amino-3-methyl-azetidin-1-yl)-3-pyridyl]azetidin-1-yl]methyl]-6-methyl-morpholin-4-yl]-3-fluoro-pyrazolo[1,5-a]pyridine-7-carbonitrile]: -0.5%.
